This is an account of results in US20250107533A1, “FUNGICIDAL COMPOSITIONS” (SYNGENTA CROP PROTECTION AG, priority 2021, published 2025).

This test concerns Phakopsora pachyrhizi. Briefly: Soybean leaf disk test against Asian soybean rust (Example 1). The following applies: soybean leaf disks, assessed 12 days after inoculation; for inhibition at 0.25 ppm / inhibition at 0.74 ppm / inhibition at 2.22 ppm: Phakopsora pachyrhizi, foliar, 288 h, component (B) alone; for (A) inhibition: Aureobasidin A alone. It is filed as in vivo. How it is done: The compositions according to the invention are tested for their biological (fungicidal) activity using application rates wherein the component (A) is applied at a rate of from 25 g a.i./ha to 500 g a.i./ha in association with 10 g a.i./ha to 500 g a.i./ha of component (B).
The compositions according to the invention are tested for their biological (fungicidal) activity as dimethylsulfoxide (DMSO) solutions the protocols as set forth in the examples below. A standard description of the liquid culture tests is provided in Example 1.
Compounds to be tested were prepared as DMSO solutions (max. 10 mg/mL) which were diluted to the appropriate concentration with 0.025% TWEEN 20® surfactant just before spraying. Soybean leaf disks were placed on agar in multiwell plates (24-well format) and sprayed with test solutions. After 24 hours drying, the leaf disks were inoculated with a spore suspension of the fungus. The disease severity of a compound or mixture was assessed 12 days after inoculation and described as percent activity relative to the untreated check leaf disks.

The inhibition is how much of the control response was suppressed. The low end stands for little suppression, the high end for strong suppression.

For `CNC(=O)N(Cc1ccc(-c2noc(C(F)(F)F)n2)cc1)OC` [B.05, 1-methoxy-3-methyl-1-[[4-[5-(trifluoromethyl)-1,2,4-oxadiazol-3-yl]phenyl]methyl]urea], the inhibition at 0.25 ppm was 0% and at 0.74 ppm the inhibition was 50%.
Consider Aureobasidin A, for which the “(A) inhibition” value is 62% (2.5 ppm) and 88% (7.4 ppm).
For `CON(Cc1ccc(-c2noc(C(F)(F)F)n2)cc1)C(=O)C1CC1` [B.02, N-methoxy-N-[[4-[5-(trifluoromethyl)-1,2,4-oxadiazol-3-yl]phenyl]methyl]cyclopropanecarboxamide], the inhibition at 0.74 ppm was determined as 10% and the inhibition at 2.22 ppm is 35%.
For `CCOC(=O)c1cnn(Cc2ccc(-c3noc(C(F)(F)F)n3)cc2)c1` [B.01, ethyl 1-[[4-[5-(trifluoromethyl)-1,2,4-oxadiazol-3-yl]phenyl]methyl]pyrazole-4-carboxylate], the inhibition at 0.74 ppm stood at 50%.
Turning to `CCC(=O)NCc1ccc(-c2noc(C(F)(F)F)n2)cc1` [B.08, N-[[4-[5-(trifluoromethyl)-1,2,4-oxadiazol-3-yl]phenyl]methyl]propanamide], testing at 0.25 ppm gave an inhibition of 0%, the inhibition at 0.74 ppm was found to be 20% and 2.22 ppm produced 60% inhibition.
The molecule `CCNC(=O)N(Cc1ccc(-c2noc(C(F)(F)F)n2)cc1)OC` [B.07, 3-ethyl-1-methoxy-1-[[4-[5-(trifluoromethyl)-1,2,4-oxadiazol-3-yl]phenyl]methyl]urea] returned an inhibition at 0.25 ppm of 0% and an inhibition at 0.74 ppm of 35%.
As for `COC(C)C(=O)N(Cc1ccc(-c2noc(C(F)(F)F)n2)cc1)OC` (stereo not shown) [B.03, N,2-dimethoxy-N-[[4-[5-(trifluoromethyl)-1,2,4-oxadiazol-3-yl]phenyl]methyl]propanamide], the inhibition at 0.74 ppm was determined as 10% and the inhibition at 2.22 ppm turned out to be 35%.
Take `CONC(=O)N(Cc1ccc(-c2noc(C(F)(F)F)n2)cc1)OC` [B.06, 1,3-dimethoxy-1-[[4-[5-(trifluoromethyl)-1,2,4-oxadiazol-3-yl]phenyl]methyl]urea]: the inhibition at 0.25 ppm worked out at 0% and at 0.74 ppm the inhibition was 0%.
Molecule `CCN(Cc1ccc(-c2noc(C(F)(F)F)n2)cc1)C(=O)C(C)C` [B.04, N-ethyl-2-methyl-N-[[4-[5-(trifluoromethyl)-1,2,4-oxadiazol-3-yl]phenyl]methyl]propanamide] displayed an inhibition at 0.25 ppm of 0%, an inhibition at 0.74 ppm of 0% and an inhibition at 2.22 ppm of 35%.
